“Also recorded” adds a separate entry of the source.

Consider two compounds from patent publication US10221239B2, “TRPM4 channel inhibitors for stroke treatment” (Singapore Health Services Pte Ltd, priority 2013, dated 2019).

Data set [1] deals with HUVECs. Briefly: Tube formation of HUVECs on Matrigel after OGD. The class given is cell-based, human. Conditions: 5 μM. Here is the method:
(§1) HUVECs (Lonza, Wokingham, UK) were cultured at 37° C. with 5% CO2. The culture medium is endothelial growth medium-2 (EGM-2) consisting of endothelial basal medium (EBM), supplemented with 2% fetal bovine serum, hydrocortisone, hFGF, VEGF, R3-IGF-1, ascorbic acid, HEGF, GA-1000, and heparin (Lonza, Wokingham, UK). Cells at passage 6-10 were used for experiments. HUVECs were subjected to oxygen/glucose deprivation (OGD). To achieve supplement deprivation, EGM-2 was changed to EBM without fetal bovine serum or growth supplements. Hypoxia was induced by culturing the cells in a hypoxic chamber (Stem Cell Technologies, Vancouver, Canada) with 1% O2 and 5% CO2 at 37° C. for 24 hours.
HUVECs were divided into the following groups: Normoxia; Normoxia+5 μM 9-phenanthrol (Sigma); Hypoxia; and Hypoxia+5 μM 9-phenanthrol. A 24-well culture plate was precoated with 250 μl of growth factor-reduced Matrigel (Sigma, USA) at 37° C. for 30 minutes. 24 hours after OGD, 4×10^4 cells (in 300 μl of EGM-2) from each group were seeded onto the Matrigel-coated plates. The formation of capillary structures was examined under a light microscope after 4 hours. This study was replicated more than 4 times.

The target in the next data set is T1, TRPM5 channel (Homo sapiens, UniProt Q9NZQ8).
T1 sequence (Q9NZQ8 1-1165): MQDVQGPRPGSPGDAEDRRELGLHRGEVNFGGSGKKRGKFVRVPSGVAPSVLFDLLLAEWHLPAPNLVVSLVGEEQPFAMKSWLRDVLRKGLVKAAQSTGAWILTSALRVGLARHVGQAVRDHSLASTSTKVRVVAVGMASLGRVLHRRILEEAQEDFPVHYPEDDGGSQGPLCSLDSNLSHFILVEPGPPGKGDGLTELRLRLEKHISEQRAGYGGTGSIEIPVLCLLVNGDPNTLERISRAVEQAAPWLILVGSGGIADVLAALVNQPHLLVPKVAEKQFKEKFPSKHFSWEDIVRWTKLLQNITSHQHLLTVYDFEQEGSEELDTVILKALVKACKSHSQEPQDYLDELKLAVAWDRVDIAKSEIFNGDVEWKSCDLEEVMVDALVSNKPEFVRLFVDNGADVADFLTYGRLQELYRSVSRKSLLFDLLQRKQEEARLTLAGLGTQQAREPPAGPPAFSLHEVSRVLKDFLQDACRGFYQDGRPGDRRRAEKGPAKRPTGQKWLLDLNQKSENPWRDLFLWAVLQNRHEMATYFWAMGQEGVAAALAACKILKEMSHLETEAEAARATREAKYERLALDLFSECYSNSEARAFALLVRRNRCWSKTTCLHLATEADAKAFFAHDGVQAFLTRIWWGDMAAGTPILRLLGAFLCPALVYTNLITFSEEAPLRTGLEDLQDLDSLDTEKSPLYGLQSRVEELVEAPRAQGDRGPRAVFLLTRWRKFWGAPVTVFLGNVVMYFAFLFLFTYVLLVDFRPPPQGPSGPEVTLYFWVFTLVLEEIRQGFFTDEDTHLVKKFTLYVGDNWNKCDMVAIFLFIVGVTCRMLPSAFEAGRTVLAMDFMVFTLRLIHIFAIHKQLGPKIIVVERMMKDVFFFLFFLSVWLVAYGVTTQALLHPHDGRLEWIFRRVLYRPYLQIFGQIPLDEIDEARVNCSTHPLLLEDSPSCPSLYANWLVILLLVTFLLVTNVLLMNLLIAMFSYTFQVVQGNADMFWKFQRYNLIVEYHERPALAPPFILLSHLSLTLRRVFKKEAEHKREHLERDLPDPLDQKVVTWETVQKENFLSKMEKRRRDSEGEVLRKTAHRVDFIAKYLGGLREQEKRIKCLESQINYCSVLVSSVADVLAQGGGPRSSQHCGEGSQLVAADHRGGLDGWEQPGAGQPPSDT
Conditions: Grand T, et al. 2008; cited from earlier work.

Data set [2] concerns HUVECs. Briefly: HUVEC cell death after oxygen/glucose deprivation (cell count, MTT). In kind it is cell-based, human. As to conditions: 5 μM. Here is the method: as §1
Data set [3] deals with HUVECs. Briefly: HUVEC cell number count after different doses of 9-phenanthrol. In kind it is cell-based, human. The procedure: as §1
To test the functional impact of TRPM4 on HUVECs, the cells were incubated with the TRPM4-specific blocker 9-phenanthrol. […] A study was performed in which 9-phenantrol with the concentration ranged from 0.1 μM to 30 μM was added to HUVECs. […] Thus, 5 μM 9-phenanthrol was used to treat HUVECs.

The next data set deals with TRPM4 homomers (Homo sapiens, UniProt Q8TD43). As to conditions: Sala-Rabanal M, et al. 2012; cited from earlier work.
Chain of TRPM4 homomers (Q8TD43 whole entry): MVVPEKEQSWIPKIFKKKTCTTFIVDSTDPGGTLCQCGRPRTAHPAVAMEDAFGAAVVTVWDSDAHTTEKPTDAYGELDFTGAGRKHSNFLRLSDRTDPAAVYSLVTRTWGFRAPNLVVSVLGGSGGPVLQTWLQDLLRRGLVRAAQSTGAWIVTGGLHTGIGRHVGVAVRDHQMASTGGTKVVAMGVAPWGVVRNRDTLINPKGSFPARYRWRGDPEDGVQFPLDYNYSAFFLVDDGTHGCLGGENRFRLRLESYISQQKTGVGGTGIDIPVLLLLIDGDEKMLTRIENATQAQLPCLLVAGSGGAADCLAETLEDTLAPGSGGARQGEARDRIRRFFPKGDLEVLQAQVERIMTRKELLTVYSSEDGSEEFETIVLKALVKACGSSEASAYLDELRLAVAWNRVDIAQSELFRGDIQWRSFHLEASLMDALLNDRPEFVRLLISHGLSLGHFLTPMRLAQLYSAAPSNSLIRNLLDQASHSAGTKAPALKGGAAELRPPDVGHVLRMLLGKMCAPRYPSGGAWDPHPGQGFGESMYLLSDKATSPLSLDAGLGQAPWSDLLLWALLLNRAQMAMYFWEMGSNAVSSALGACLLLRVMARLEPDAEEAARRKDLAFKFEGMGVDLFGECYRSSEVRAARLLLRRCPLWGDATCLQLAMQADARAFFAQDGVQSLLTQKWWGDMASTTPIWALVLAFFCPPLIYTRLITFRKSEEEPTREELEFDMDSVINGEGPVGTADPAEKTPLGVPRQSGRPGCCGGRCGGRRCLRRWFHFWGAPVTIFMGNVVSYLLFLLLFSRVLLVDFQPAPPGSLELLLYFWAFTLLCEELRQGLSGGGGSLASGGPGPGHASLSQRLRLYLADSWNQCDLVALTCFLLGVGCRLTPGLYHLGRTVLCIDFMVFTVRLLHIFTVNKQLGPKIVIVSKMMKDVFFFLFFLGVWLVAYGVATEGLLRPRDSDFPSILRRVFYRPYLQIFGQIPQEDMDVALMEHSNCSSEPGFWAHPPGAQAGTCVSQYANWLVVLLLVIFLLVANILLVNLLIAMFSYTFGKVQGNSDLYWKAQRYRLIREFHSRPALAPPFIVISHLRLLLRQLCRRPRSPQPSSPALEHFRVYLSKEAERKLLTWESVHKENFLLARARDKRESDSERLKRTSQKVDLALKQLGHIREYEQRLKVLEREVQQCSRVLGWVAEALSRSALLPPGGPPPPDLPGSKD

As to `Oc1cc2ccccc2c2ccccc12` [9-phenanthrol], the “tube formation (tube branches) on Matrigel” value in the data set with HUVECs [1] is reported as “large enhancement; also recorded: significantly increased”. Besides, at TRPM5 channel, the “effect on TRPM5 channel” value was “does not affect”. For the same compound, in the data set with HUVECs [2] (24 hours OGD), the “cell death after OGD” value is “did not reduce cell death”. Also, the “MTT assay cell viability” value in the data set on HUVECs [2] (vs control cells) was “no difference”. Moreover, the “HUVEC cell number count” value in the data set on HUVECs [2] (vs control cells, normoxia and hypoxia 24 hours) is given as “no difference”. Moreover, the cell death result in the data set with HUVECs [3] (10 μM 9-phenanthrol in culture medium) was “Cell death became prominent”; with HUVECs [3] (9-phenanthrol between 0.1 μM and 5 μM) it was “No difference”. The cell survival result in the data set on HUVECs [3] (30 μM 9-phenanthrol) is “Very few cells survived”.
Regarding `COc1ccc(Cl)cc1C(=O)NCCc1ccc(S(=O)(=O)NC(=O)NC2CCCCC2)cc1` [glibenclamide], the “sensitivity of TRPM4 homomers” value at TRPM4 homomers is “not sensitive”.
